This is an account of results in paper PMC3664202 (Bioorganic & medicinal chemistry letters, 2012).

Series [1] concerns psoriasis and other inflammatory skin conditions. Particulars: small clinical trial; cited from earlier work.
For a further series, the target named is Kv1.3 channels (Mus musculus, UniProt P16390). The experiment in a line: Kv1.3 blockade, manual whole-cell patch-clamp. Type of series: cell-based. As to conditions: for decrease in Kv1.3 blocking activity/potency relative to diphenoxylate: fold less potent than diphenoxylate. (In patch-clamp work, channel activity is measured electrically.)
Sequence of Kv1.3 channels (P16390 whole entry): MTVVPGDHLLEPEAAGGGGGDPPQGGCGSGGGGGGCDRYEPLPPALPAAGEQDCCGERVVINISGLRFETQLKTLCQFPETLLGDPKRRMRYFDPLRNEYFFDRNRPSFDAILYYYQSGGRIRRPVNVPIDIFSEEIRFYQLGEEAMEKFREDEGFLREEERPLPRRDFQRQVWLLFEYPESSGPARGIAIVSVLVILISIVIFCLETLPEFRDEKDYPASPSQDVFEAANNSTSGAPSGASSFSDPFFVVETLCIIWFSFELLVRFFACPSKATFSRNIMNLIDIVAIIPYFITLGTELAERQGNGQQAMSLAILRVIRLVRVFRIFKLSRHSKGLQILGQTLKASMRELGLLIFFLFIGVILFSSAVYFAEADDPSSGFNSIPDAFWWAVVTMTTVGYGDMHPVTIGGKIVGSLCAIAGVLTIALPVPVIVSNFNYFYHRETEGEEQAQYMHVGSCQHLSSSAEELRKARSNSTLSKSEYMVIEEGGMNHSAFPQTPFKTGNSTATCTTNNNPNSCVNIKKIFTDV
Series [2] has as its system delayed type hypersensitivity (DTH) and allergic contact dermatitis (ACD). Particulars: Lewis rats; dosed orally, by i.p. injection or topically; cited from earlier work.
The conditions of series [3]: cited from earlier work.
The test system of series [4] is adoptive transfer and chronic relapsing experimental autoimmune encephalomyelitis (EAE). As to conditions: rats; cited from earlier work.

`CCOC(=O)C1(c2ccccc2)CCN(CCC(C#N)(c2ccccc2)c2ccccc2)CC1` [Compound 1, Diphenoxylate]: the “clinical effect on psoriasis and other inflammatory skin conditions” value in series [1] is “successfully treat psoriasis and other inflammatory skin conditions”.

As for `CCOC(=O)C1CCN(CCC(C#N)(c2ccccc2)c2ccccc2)CC1` [Compound 6, Ethyl 1-(3-cyano-3,3-diphenylpropyl)piperidine-4-carboxylate], the “decrease in Kv1.3 blocking activity/potency relative to diphenoxylate” value at Kv1.3 channels is on record as ~ 50 fold.

For the molecule `CCOC(=O)C1(c2ccccc2)CCN(CCC(c2ccccc2)c2ccccc2)CC1` [Compound 7, Ethyl 1-(3,3-diphenylpropyl)-4-phenylpiperidine-4-carboxylate], the “more active than diphenoxylate (Kv1.3 blockade)” value on Kv1.3 channels (fold more active than diphenoxylate) is listed as 6 fold.

Turning to `N#CC(CCN1CCCCC1)(c1ccccc1)c1ccccc1` [Compound 8, 2,2-diphenyl-4-(piperidin-1-yl)butanenitrile], the “decrease in Kv1.3 blocking activity/potency relative to diphenoxylate” value on Kv1.3 channels amounted to 4 fold.

In general, IC50 refers to the midpoint of a concentration-inhibition curve. High values mean weaker potency, low ones greater potency. `N#CC(CCN1CCCC(O)C1)(c1ccccc1)c1ccccc1` (stereo not shown) [Compound 15, 4-(3-hydroxypiperidin-1-yl)-2,2-diphenylbutanenitrile] registered an IC50 on Kv1.3 channels above 100 µM.

On to `OC1CCN(CCCc2ccccc2)CC1` [Compound 17, 1-(3-phenylpropyl)piperidin-4-ol], for which the IC50 against Kv1.3 channels is above 100 µM. Moreover, the “Kv1.3 blocking activity (in words)” value on Kv1.3 channels (removal of a cyano group plus a phenyl ring from 14) is on record as “no activity”.

With `O=c1ccc2c(OCCCCOc3ccccc3)c3ccoc3cc2o1` [PAP-1], in series [2], the “effect on DTH and ACD” value is “suppress delayed type hypersensitivity (DTH) and allergic contact dermatitis (ACD)”. Further, the oral availability in series [3] is listed as 25%.

On to ShK, for which, in series [4], the “effect on EAE” value was “able to treat both adoptive transfer and chronic relapsing experimental autoimmune encephalomyelitis (EAE)”.
